Key:
[1] = tested on: 16HBE140- cells; experiment: Phage ELISA binding to 16HBE140- cells; type: cell-based, human; settings: unfixed cells; for OD 450 nm: 10^10 pfu/ml, average of triplicate wells; for Binding to 16HBE140- cells (in words): phage ELISA
Description: Phage binding to 16HBE140- cells was analyzed using confluent cells grown with DMEM-F12 complete medium in 96-well collagen coated plates (BD Biosciences, San Diego, Calif.) at 37° C. in 5% CO2. The cells were washed with DPBS and phage diluted in DPBS containing 1% BSA (DPBS-BSA) were applied in 100 μl. Bound phage were detected using primary antibody (mouse IgG T7 tail fiber monoclonal antibody diluted 1:2000 in DPBS-BSA) and secondary antibody (goat anti-mouse IgG HRP diluted 1:5000 in DPBS-BSA) followed by detection with OptEIA reagents as above.
Binding of phage T7Select®10-3b displaying Trp cage TC5b (Trp cage) was compared to binding of three phage clones selected from the naïve Trp cage library after 3 rounds of panning against the human bronchial epithelial cell line 16HBE140-. Results represent the average of triplicate wells.

[2] = tested on: antibody AB167; experiment: Phage ELISA for TAG suppression (binding of antibody AB167); set-up: species or system rabbit; settings: 10^8 pfu/ml; relative to clone B1 grown in the same host; /B = nonsuppressor BLT5403, /C = suppressor C600CR; average of triplicate wells
Description: (§1) Phage purified by double precipitation with PEG was diluted in Dulbecco's PBS (DPBS) and applied to wells of a 96-well Maxisorp® plate (Nalge Nunc International®, Rochester, N.Y.) and allowed to bind for one hour followed by three washes with 400 μl of OptEIA wash buffer (BD Biosciences) and blocking with 1% BSA in TBS-Tween (0.1%). All washes were done at room temperature with slow orbital shaking. Antibody AB 167 diluted 1:500 was applied in PBS-T containing 1% BSA and allowed to bind for one hour at room temperature then washed five times with 400 μl of wash buffer. Bound antibody was detected with the secondary antibody goat anti-rabbit HRP diluted 1:1000 in PBS-T with 1% BSA applied for one hour and washed five times with 400 μl of wash buffer followed by development with OptEIA reagents according to the manufacturer's directions. Means were compared using Student's t-test.
Growth of phage containing the insert encoding Trp cage TC5b in the host BLT5403 which limits expression to 5 to 10 copies of the peptide, produced clones displaying the expected sequence […] (SEQ ID NO: 530) with a low frequency of mutations (one out of twelve sequenced clones). […] Some of the mutant clones contained the TAG stop codon within the Trp cage sequence and were expected to result in the display of truncated peptides. Two nonsense mutants, E7 which contained a TAG stop codon at Tyr-3 of the Trp cage sequence NL*IQWLKDGGPSSGRPPPS (SEQ ID NOs: 588 and 534, respectively in order of appearance) and E12 which contained a TAG stop codon at Trp-6 of the Trp cage sequence NLYIQ*LKDGGPSSGRPPPS (SEQ ID NOs: 535 and 553, respectively in order of appearance), were chosen to test the effectiveness of the suppressor host C600CR by ELISA. […] Since AB167 is a polyclonal antibody, some binding to the truncated peptides of E7 and E12 was expected with possibly greater binding to E12 because it is three residues longer than E7.
Binding of antibody AB167 to T7Select® 10-3b phage grown in the nonsuppressor host BLT5403 (B) was compared with binding to phage grown in the suppressor host C600CR (C). […] Binding of the antibody to phage mutants E7 and E12 displaying truncated Trp cages grown in B (E7/B and E12/B, respectively) was related to antibody binding to phage clone B I displaying the full length Trp cage on a percentage basis. The phage mutants grown in C (E7/C and E12/C) were likewise related to B1 grown in C. Results represent the average of triplicate wells.

[3] = tested on: HUVEC cells; experiment: Cell-based ELISA for cell-specific binding, HUVEC; set-up: species or system human; settings: M13 PHD-7 phage clone
Description: (§2) For screening cell-specific binding phage display peptides, confluent HepG2 or HUVEC cells grown in DMEM-F12-complete in a 96-well plate fixed with methanol, stored at 4° C. Applied 250 μl/well of diluted phage and incubated in wells for 1 hour while shaking. Stopped reactions with 75 ul of 1M HCl after ˜5-7 min, read at 450 nm.
(§3) Representative display peptides isolated from panning against either HepG2 or HUVEC cells with the Trp cage and M13 libraries were tested for cell-specific binding. The peptide having the amino acids sequence SIGYLPL (SEQ ID NO: 532) and the peptide having the amino acid sequence LTAELTP (SEQ ID NO: 533) served as positive HepG2 binding controls. The 7-mer display peptide represented by the amino acid sequence HPQ served as a negative binding control.
(§4) Staining by the positive controls was less intense than NLQEFLF (SEQ ID NO: 61).

[4] = tested on: HepG2 cells; experiment: Cell-based ELISA for cell-specific binding, HepG2; set-up: species or system human; settings: methanol-fixed HepG2 cells, M13 PHD-7 phage clones
Description: as §2, §3, §4

[5] = tested on: HepG2 cells; experiment: Fluorescence microscopy with FITC-labeled phage on HepG2 cells; type: cell-based, human; settings: ~e9 pfu per well, 1 hr, visualized at 200×
Description: The phage microscopy protocol is as follows:
1. Grow HepG2 cells on collagen I coated glass chamber slides to 100% confluence.
2. On the day of the experiment, wash cells 3 to 5 times ˜300 μl/well of PBS.
3. Fix with 100 μl/well of methanol (chilled at −20C) for 7 min at room temperature.
4. Wash 3-5 times with ˜300 μl/well of PBS.
5. Apply 10 μl/well (˜e9 pfu) of FITC-labeled M13 phage.
6. Incubate on a rotating platform at room temperature for 1 hr in the dark.
7. Wash 5 times with ˜300 μl/well of PBS.
8. Remove chambers, dry, mount, and visualize at 200×.
as §4

[6] = tested on: antibody AB167; experiment: Western analysis of phage lysates with antibody AB167; type: binding, rabbit; settings: SDS-PAGE separated proteins, AB167 diluted 1:2500
Description: For Western analysis, phage were purified by double precipitation with PEG and denatured by boiling in Tris-Glycine SDS sample buffer (2×) with 1% beta-mercaptoethanol (BME). A 10 μl sample containing 1×10^11 pfu/ml was loaded into a well of a 1 mm 4% to 20% Tris-Glycine gel (Invitrogen®) and electrophoresed for 1.5 hours at 150 volts (constant voltage) in Tris-Glycine SDS running buffer. The separated proteins were transferred to a PVDF membrane (1.5 hours at room temperature) and blocked with 3% non-fat dry milk in TBS-T (0.05%) for one hour at room temperature. The membrane was probed for two hours with antibody AB167 diluted 1:2500 at room temperature followed by three five minute washes with TBS-T. Goat anti-rabbit HRP diluted 1:5000 was used to detect the bound AB167 antibody. It was incubated with the membrane for one hour at room temperature followed by four 10 minute washes and the membrane was developed with SuperSignal West Femto Maximum Sensitivity Substrate® (Pierce®) according to the manufacturer's instructions. MagicMark XP Western Protein Standards were used for size reference standards.
For the Western blot analysis of Trp cage TC5b expressed with the 10-3b T7Select® vector, proteins in lysates from phage infected cells were separated by SDS-PAGE in Coomasie stained gel. […]

[7] = tested on: antibody AB167; experiment: Phage ELISA with antibody AB167 for display of Trp cage TC5b on the phage capsid; type: binding, rabbit; settings: 1×10^6, 1×10^7 and 1×10^8 phage per well
Description: as §1
Two negative controls were used. One was the 10-3b vector with no insert and the other was the 10-3b vector containing the S-Tag. All phage were incubated with the AB167 antibody at 1×10^6, 1×10^7 and 1×10^8 phage per well for the ELISA.

Substance	OD 450 nm [1]	Percent antibody binding [2]	other results
DAYPQWLFTPGPTSGRPPPL* [624-55-21]	0.15		
DPYAQWLQSMGPHSGRPPPR* [624-55-29]	0.39		Binding to 16HBE140- cells (in words) [1]: demonstrated binding
DRYPQWLNGMGPSSGRPPPN* [624-55-20]	0.22		
NL*IQWLKDGGPSSGRPPPS [E7/B]		32%	
NL*IQWLKDGGPSSGRPPPS [E7/C]		65%	
NLQEFLF [M13 PHD-7 phage display peptide isolated by panning against HepG2 cells]			Binding to HUVEC cells (cell-based ELISA) [3]: did not bind; Binding to HepG2 cells (cell-based ELISA) [4]: HepG2 specific binding; Binding/staining of FITC-labeled phage on methanol-fixed HepG2 cells [5]: bound
NLYIQ*LKDGGPSSGRPPPS [E12/B]		50%	
NLYIQ*LKDGGPSSGRPPPS [E12/C]		62%	
NLYIQWLKDGGPSSGRPPPS [10-3b/TC5b, reference compound]	0.22		Binding to 16HBE140- cells (in words) [1]: low; Binding of antibody AB167 to protein of phage lysate (Western blot) [6]: contained a protein that bound the Trp cage specific antibody AB167; ELISA signal with antibody AB167 [7]: signal was detected
NLYIQWLKDGGPSSGRPPPS [B1/C]		100%	
